Starred links: 1 amine or outer side, 2 acyl side, 3 side chain; linkers in the order of their positions; H or OH if unused. Positions of bridges follow the written chain, without caps; N, C: chain ends. Non-standard residues stand in square brackets, D forms with d. Residues, ends and D or L forms follow the SMILES beside them. *: point of attachment. Trp(7-(3-AcNH-Ph)) = CC(=O)Nc1cccc(-c2cccc3c(C[C@H](N)C(=O)O)c[nH]c23)c1; Me3N+(CH2)2O(CH2)2O(CH2)2CO = C[N+](C)(C)CCOCCOCCC(=O)*; Trp(7-Me) = Cc1cccc2c(C[C@H](N)C(=O)O)c[nH]c12; Abu(4-yl) = O=C([C@H](CC[*:3])N[*:1])[*:2]; dLys(Me3) = C[N+](C)(C)CCCC[C@@H](N)C(=O)O; 3Pal(5-Me) = Cc1cncc(C[C@H](N)C(=O)O)c1; 2Nal = N[C@@H](Cc1ccc2ccccc2c1)C(=O)O; AEF = NCCOc1ccc(C[C@H](N)C(=O)O)cc1; 3Pal = N[C@@H](Cc1cccnc1)C(=O)O; Lys(Me) = CNCCCC[C@H](N)C(=O)O; Pen = CC(C)(S)[C@H](N)C(=O)O; αMeC = C[C@](N)(CS)C(=O)O; Thp = NC1(C(=O)O)CCOCC1; PEG2 = NCCOCCOCCC(=O)O; X3 = C[N+](C)(C)CCCCC*; Sar = CNCC(=O)O; X58 = NCCCCC*
Target: T1, IL-23R (Homo sapiens, UniProt Q5VWK5)
T1 construct: host or cells: HEK293
T1 sequence (Q5VWK5 24-629): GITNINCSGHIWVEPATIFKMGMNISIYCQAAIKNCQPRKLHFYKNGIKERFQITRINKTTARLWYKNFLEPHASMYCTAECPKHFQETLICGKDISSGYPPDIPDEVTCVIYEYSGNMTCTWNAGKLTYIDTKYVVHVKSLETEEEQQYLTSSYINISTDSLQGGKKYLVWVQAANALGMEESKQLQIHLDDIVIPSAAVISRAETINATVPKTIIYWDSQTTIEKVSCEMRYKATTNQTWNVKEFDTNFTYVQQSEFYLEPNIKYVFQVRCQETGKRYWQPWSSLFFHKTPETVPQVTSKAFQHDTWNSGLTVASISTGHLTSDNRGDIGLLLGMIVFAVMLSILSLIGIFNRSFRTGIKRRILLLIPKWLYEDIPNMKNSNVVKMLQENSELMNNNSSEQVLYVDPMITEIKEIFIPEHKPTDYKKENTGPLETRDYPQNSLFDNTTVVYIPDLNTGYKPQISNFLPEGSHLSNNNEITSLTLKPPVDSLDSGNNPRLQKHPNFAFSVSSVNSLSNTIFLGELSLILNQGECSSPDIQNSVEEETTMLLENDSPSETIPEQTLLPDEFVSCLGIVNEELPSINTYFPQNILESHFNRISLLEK
Assay: IL23R Reporter Assay
Format: cell-based
Conditions: HEK293 cells containing IL-23R, IL-12RP1 and STAT-inducible firefly luciferase reporter; 10 ng/mL IL-23 (EC90); 5 h at 37° C.; read-out: IL23R Reporter Assay

IC50 [nM] | SMILES
4.2 | CC(=O)N[C@@H]1C(=O)N[C@@H](CC(=O)N(C)C)C(=O)N[C@@H]([C@@H](C)O)C(=O)N[C@@H](Cc2c[nH]c3c(C)cccc23)C(=O)N[C@@H](COCCOCC[N+](C)(C)C)C(=O)N[C@H](C(=O)N[C@@H](Cc2ccc(OCCOCCOCC[N+](C)(C)C)cc2)C(=O)N[C@@H](Cc2ccc3ccccc3c2)C(=O)NC2(C(=O)N[C@@H](CCCCN(C)C(C)=O)C(=O)N[C@@H](CC(N)=O)C(=O)N[C@@H](Cc3cccnc3)C(=O)N(C)CC(=O)N(C)C)CCOCC2)C(C)(C)SSC1(C)C (relative stereo) [compound 267, MeCO-Pen(3)-N(N(Me)2)-T-7MeW-APEG2Ser(S*)-Pen(3)-APEG3F-2Nal-THP-K(NMeAc)-N-3Pya-Sar-CON(Me)2]

Test system: not listed separately
Assay: Exposed Polar Surface Area (EPSA)
Format: physicochemical
Conditions: SFC on Chirex 3014 column; sample 1 mM DMSO stock; read-out: EPSA
Procedure, shortened: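 Compounds, as 1 mM DMSO stock, were injected in duplicate onto an SFC Chirex 3014 column at 35 °C and eluted with a CO2/methanol (20 mM ammonium formate) gradient. EPSA values in Å^2 were derived from retention times using a linear fit to eight calibration standards, reinjected every 20 compounds.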

EPSA [A^2] | SMILES
248 | CC(=O)NCCCC[C@@H]1NC(=O)[C@H](Cc2c[nH]c3c(C)cccc23)NC(=O)[C@H]([C@@H](C)O)NC(=O)[C@H](CC(N)=O)NC(=O)[C@@H](NC(=O)CCOCCOCC[N+](C)(C)C)C(C)(C)SSC(C)(C)[C@@H](C(=O)N[C@@H](Cc2ccc(OCCNC(=N)N)cc2)C(=O)N[C@@H](Cc2ccc3ccccc3c2)C(=O)NC2(C(=O)N[C@@H](CCC(=O)O)C(=O)N[C@@H](CC(N)=O)C(=O)N[C@@H](Cc3cncc(C)c3)C(=O)N(C)CC(N)=O)CCOCC2)NC1=O [compound 514, cPEG3aCO-Pen(3)-N-T-7MeW-K(Ac)-Pen(3)-AEF(G)-2Nal-THP-E-N-5MePyridinAla-Sar-CONH2]
161 | CC(=O)N(C)CCCC[C@@H]1NC(=O)[C@H](Cc2c[nH]c3c(C)cccc23)NC(=O)[C@H]([C@@H](C)O)NC(=O)[C@H](CC(=O)N(C)C)NC(=O)[C@@H](NC(=O)CCOCCOCCN)C(C)(C)SSC(C)(C)[C@@H](C(=O)N[C@@H](Cc2ccc(OCCCCCN)cc2)C(=O)N[C@@H](Cc2ccc3ccccc3c2)C(=O)NC2(C(=O)N[C@@H](CCCCN(C)C(C)=O)C(=O)N[C@@H](CC(N)=O)C(=O)N[C@@H](Cc3cccnc3)C(=O)N(C)CC(=O)N(C)C)CCOCC2)NC1=O [compound 529, cPEG3AmCO-Pen(3)-N(N(Me)2)-T-7MeW-K(NMeAc)-Pen(3)-APF-2Nal-THP-K(NMeAc)-N-3Pya-Sar-CON(Me)2] (H-[PEG2][Pen]D(NMe2)T[Trp(7-Me)][Lys(Me)](Ac)[Pen]Y(X58)[2Nal][Thp][Lys(Me)](Ac)N[3Pal][Sar]-NMe2; disulfide 2-7)
190 | CC(=O)NCCCC[C@@H]1NC(=O)[C@H](Cc2c[nH]c3c(-c4cccc(NC(C)=O)c4)cccc23)NC(=O)[C@H]([C@@H](C)O)NC(=O)[C@H](CC(N)=O)NC(=O)[C@@H](NC(=O)[C@@H](CCCC[N+](C)(C)C)NC(C)=O)C(C)(C)SSC(C)(C)[C@@H](C(=O)N[C@@H](Cc2ccc(OCCN)cc2)C(=O)N[C@@H](Cc2ccc3ccccc3c2)C(=O)NC2(C(=O)N[C@@H](CCC(=O)O)C(=O)N[C@@H](CC(N)=O)C(=O)N[C@@H](Cc3cncc(C)c3)C(=O)N(C)CC(N)=O)CCOCC2)NC1=O [compound 535, MeCO-k(Me)3-Pen(3)-N-T-7(3NAcPh)W-K(Ac)-Pen(3)-AEF-2Nal-THP-E-N-5MePyridinAla-Sar-CONH2] (Ac-[dLys(Me3)][Pen]NT[Trp(7-(3-AcNH-Ph))]K(Ac)[Pen][AEF][2Nal][Thp]EN[3Pal(5-Me)][Sar]-NH2; disulfide 2-7)
210 | CC(=O)NCCCC[C@@H]1NC(=O)[C@H](Cc2c[nH]c3c(-c4cccc(NC(C)=O)c4)cccc23)NC(=O)[C@H]([C@@H](C)O)NC(=O)[C@H](CC(N)=O)NC(=O)[C@@H](NC(=O)[C@@H](CCCNC(=N)N)NC(=O)CCOCCOCC[N+](C)(C)C)C(C)(C)SSC(C)(C)[C@@H](C(=O)N[C@@H](Cc2ccc(OCCN)cc2)C(=O)N[C@@H](Cc2ccc3ccccc3c2)C(=O)NC2(C(=O)N[C@@H](CCC(=O)O)C(=O)N[C@@H](CC(N)=O)C(=O)N[C@@H](Cc3cncc(C)c3)C(=O)N(C)CC(N)=O)CCOCC2)NC1=O [compound 536, cPEG3aCO-r-Pen(3)-N-T-7(3NAcPh)W-K(Ac)-Pen(3)-AEF-2Nal-THP-E-N-5MePyridinAla-Sar-CONH2] ({Me3N+(CH2)2O(CH2)2O(CH2)2CO}-[dR][Pen]NT[Trp(7-(3-AcNH-Ph))]K(Ac)[Pen][AEF][2Nal][Thp]EN[3Pal(5-Me)][Sar]-NH2; disulfide 2-7)
163 | CC(=O)NCCCC[C@@H]1NC(=O)[C@H](Cc2c[nH]c3cccc(C)c23)NC(=O)[C@H]([C@@H](C)O)NC(=O)[C@H](CC(N)=O)NC(=O)[C@@H](NC(C)=O)C(C)(C)SSC(C)(C)[C@@H](C(=O)N[C@@H](Cc2ccc(OCCCCC[N+](C)(C)C)cc2)C(=O)N[C@@H](Cc2ccc3ccccc3c2)C(=O)NC2(C(=O)N[C@@H](CCCCNC(C)=O)C(=O)N[C@@H](CC(N)=O)C(=O)N[C@@H](Cc3cccnc3)C(=O)N(C)CC(N)=O)CCCC2)NC1=O [compound 537, MeCO-Pen(3)-N-T-7MeW-K(Ac)-Pen(3)-TMAPF-2Nal-Acpx-K(Ac)-N-3Pya-Sar-CONH2]
183 | CC(=O)NCCCC[C@@H]1NC(=O)[C@H](Cc2c[nH]c3c(-c4cccc(NC(C)=O)c4)cccc23)NC(=O)[C@H]([C@@H](C)O)NC(=O)[C@H](CC(N)=O)NC(=O)[C@@H](NC(=O)[C@@H](CCCNC(=N)N)NC(C)=O)C(C)(C)SSC(C)(C)[C@@H](C(=O)N[C@@H](Cc2ccc(OCCCCC[N+](C)(C)C)cc2)C(=O)N[C@@H](Cc2ccc3ccccc3c2)C(=O)NC2(C(=O)N[C@@H](CCC(=O)O)C(=O)N[C@@H](CC(N)=O)C(=O)N[C@@H](Cc3cncc(C)c3)C(=O)N(C)CC(N)=O)CCOCC2)NC1=O [compound 540, MeCO-r-Pen(3)-N-T-7(3NAcPh)W-K(Ac)-Pen(3)-TMAPF-2Nal-THP-E-N-5MePyridinAla-Sar-CONH2] (Ac-[dR][Pen]NT[Trp(7-(3-AcNH-Ph))]K(Ac)[Pen]Y(X3)[2Nal][Thp]EN[3Pal(5-Me)][Sar]-NH2; disulfide 2-7)
180 | CC(=O)NCCCC[C@@H]1NC(=O)[C@H](Cc2c[nH]c3c(C)cccc23)NC(=O)[C@H]([C@@H](C)O)NC(=O)[C@H](CC(N)=O)NC(=O)[C@@H](NC(=O)[C@@H](CCCNC(=N)N)NC(=O)CCOCCOCC[N+](C)(C)C)C(C)(C)SSC(C)(C)[C@@H](C(=O)N[C@@H](Cc2ccc(OCCCCC[N+](C)(C)C)cc2)C(=O)N[C@@H](Cc2ccc3ccccc3c2)C(=O)NC2(C(=O)N[C@@H](CCC(=O)O)C(=O)N[C@@H](CC(N)=O)C(=O)N[C@@H](Cc3cncc(C)c3)C(=O)N(C)CC(N)=O)CCOCC2)NC1=O [compound 542, cPEG3aCO-r-Pen(3)-N-T-7MeW-K(Ac)-Pen(3)-TMAPF-2Nal-THP-E-N-5MePyridinAla-Sar-CONH2] ({Me3N+(CH2)2O(CH2)2O(CH2)2CO}-[dR][Pen]NT[Trp(7-Me)]K(Ac)[Pen]Y(X3)[2Nal][Thp]EN[3Pal(5-Me)][Sar]-NH2; disulfide 2-7)
163 | CC(=O)NCCCC[C@@H]1NC(=O)[C@H](Cc2c[nH]c3c(C)cccc23)NC(=O)[C@H]([C@@H](C)O)NC(=O)[C@H](CC(N)=O)NC(=O)[C@@H](NC(C)=O)C(C)(C)SSC(C)(C)[C@@H](C(=O)N[C@@H](Cc2ccc(OCC[N+](C)(C)C)cc2)C(=O)N[C@@H](Cc2ccc3ccccc3c2)C(=O)NC2(C(=O)N[C@@H](CCCCNC(C)=O)C(=O)N[C@@H](CC(N)=O)C(=O)N[C@@H](Cc3cccnc3)C(=O)N(C)CC(N)=O)CCOCC2)NC1=O [compound 561, MeCO-Pen(3)-N-T-7MeW-K(Ac)-pen(3)-AEF(NMe3)-2Nal-THP-K(Ac)-N-3Pya-Sar-CONH2]
166 | CC(=O)NCCCC[C@@H]1NC(=O)[C@H](Cc2c[nH]c3c(C)cccc23)NC(=O)[C@H]([C@@H](C)O)NC(=O)[C@H](CC(N)=O)NC(=O)[C@@H](NC(C)=O)C(C)(C)SSC(C)(C)[C@@H](C(=O)N[C@@H](Cc2ccc(OCC[N+]3(C)CCOCC3)cc2)C(=O)N[C@@H](Cc2ccc3ccccc3c2)C(=O)NC2(C(=O)N[C@@H](CCCCNC(C)=O)C(=O)N[C@@H](CC(N)=O)C(=O)N[C@@H](Cc3cccnc3)C(=O)N(C)CC(N)=O)CCOCC2)NC1=O [compound 562, MeCO-Pen(3)-N-T-7MeW-K(Ac)-Pen(3)-MMoEF-2Nal-THP-K(Ac)-N-3Pya-Sar-CONH2]
173 | CC(=O)NCCCC[C@@H]1NC(=O)[C@H](Cc2c[nH]c3ccccc23)NC(=O)[C@H]([C@@H](C)O)NC(=O)[C@H](CC(N)=O)NC(=O)[C@@H](NC(=O)[C@@H](CCCC[N+](C)(C)C)NC(C)=O)CCSC[C@@](C)(C(=O)N[C@@H](Cc2ccc(OCCN)cc2)C(=O)N[C@@H](Cc2ccc3ccccc3c2)C(=O)NC2(C(=O)N[C@@H](CCCCNC(C)=O)C(=O)N[C@@H](CC(N)=O)C(=O)N[C@@H](Cc3cccnc3)C(=O)N(C)CC(N)=O)CCOCC2)NC1=O [compound 569, MeCO-k(Me)3-Abu(1)-N-T-W-K(Ac)-aMeC(1)-AEF-2Nal-THP-K(Ac)-N-3Pya-Sar-CONH2] (Ac-[dLys(Me3)][Abu(4-yl)]NTWK(Ac)[αMeC][AEF][2Nal][Thp]K(Ac)N[3Pal][Sar]-NH2; thioether 2-7)

— US20260022143A1, “Cyclic Peptide Inhibitors of IL-23” (JANSSEN PHARMACEUTICA NV, priority 2022, published 2026)
